How the values were obtained:
PACA2 tumor xenografts = experiment: PACA2 tumor xenograft efficacy study (Example 107); format: in vivo, mice; conditions: 3 mg/kg or 12.5 mg/kg intraperitoneally 3x weekly
Experimental: Six weeks old female athymic nude mice (NCR nu/nu) received from Charles River Laboratory, acclimated to the animal housing facility for one week before initiation of the study. Mice were housed in sterile cages of 4 each with autoclaved bedding, provided with autoclaved food and water ad libitum. Efficacy studies were performed in athymic mice bearing PACA2 tumor xenografts to determine the effect of compound on tumor growth. Tumor cells (1×10^7 PACA2 cells/animal) were inoculated subcutaneously on day 0. Tumor dimensions were measured three times weekly by a digital microcaliper, and tumor volumes were calculated as length×width^2/2. When tumors reached a volume of ˜300 mm^3, mice were randomized into groups and treated 3× weekly (Monday-Wednesday-Friday, followed by a 2-day dosing holiday) intraperitoneally. With either vehicle control or 3 mg/kg and 12.5 mg/kg compound formulated in DMA/PEG400/water (20:40:40). Results are expressed as mean tumor volume±SE. To assess differences in tumor size between groups, student's t test was performed and significance was assessed for p values <0.05. Tumor size was evaluated periodically during treatment at the indicated days post-inoculation. Results are represented as the mean of tumor volume in mm^3±SE of several tumors (n=10) in function of the treatment period. […] (See FIG. 1B).

MIA-PaCa2 xenograft = experiment: Xenograft model; format: in vivo, mice; conditions: MIA-PaCa2, Pancreas; procedures and dosages of Examples 106-108
Experimental: Six-week old female athymic nude mice (NCR nu/nu; Charles River Laboratory, Wilmington, Mass.) were acclimated to the animal housing facility for at least 1 week before the study. Efficacy studies were performed in athymic mice bearing PACA2 tumor xenografts to determine the effect of compound on tumor growth. Tumor cells (1×10^7 PACA2 cells/animal) were inoculated subcutaneously on day 0. Tumor dimensions were measured by a digital microcaliper, and tumor volumes were calculated as length×width^2/2. […] Results are expressed as mean tumor volume±SE. To assess differences in tumor size between groups, a Mann-Whitney non-parametric t test was performed and significance was assessed for p values <0.05. Tumor size was evaluated periodically during treatment at the indicated days post-inoculation. […]
Six weeks old female athymic nude mice (NCR nu/nu) received from Charles River Laboratory, acclimated to the animal housing facility for one week before initiation of the study. […] Tumor dimensions were measured three times weekly by a digital microcaliper, and tumor volumes were calculated as length×width^2/2. […] Results are expressed as mean tumor volume±SE. To assess differences in tumor size between groups, student's t test was performed and significance was assessed for p values <0.05. Tumor size was evaluated periodically during treatment at the indicated days post-inoculation. […]

C#CC[C@H](c1nc2cc(Cl)ccc2c(=O)n1Nc1ccccc1)N(CCCN)C(=O)c1cccc(Cl)c1F [Compound 1, N-(3-Amino-propyl)-3-chloro-N—[(R)-1-(7-chloro-4-oxo-3-phenylamino-3,4-dihydro-quinazolin-2-yl)-but-3-ynyl]-2-fluoro-benzamide]
tolerability of doses (PACA2 tumor xenografts; PACA2 xenograft mice): well-tolerated
tumor growth compared to the vehicle control group (PACA2 tumor xenografts; tumors ~300 mm^3 at start, FIG. 1B): Significant reductions in tumor growth
Xenograft Outcome (approximate percent growth inhibition) (MIA-PaCa2 xenograft): ~90%
